The source of these data is patent US20100267743A1, “3-(PHENOXYPYRROLIDIN-3-YL-METHYL)HETEROARYL, 3-(PHENYLPYRROLIDIN-3-YLMETHOXY)HETEROARYL, AND 3-(HETEROARYLPYRROLIDIN-3-YLMETHOXY)HETEROARYL COMPOUNDS” (priority 2009, published 2010).

The target of experiment [1] is NET (Homo sapiens, UniProt P23975). The experiment can be described thus: hNET radioligand binding assay (3H-nisoxetine). Also noted: expressed in transfected cells; host or cells: HEK-293. The note with it: hNET membranes (HEK-293), 1.0 nM 3H-nisoxetine; for Ki: read-out: NET pKi (converted). The protocol: (§1) Membrane radioligand binding assays were used to measure inhibition of labeled ligand (^3H-citalopram or ^3H-nisoxetine or ^3H-WIN35428) binding to membranes prepared from cells expressing the respective human recombinant transporter (hSERT or hNET or hDAT) in order to determine the pKi values of test compounds at the transporters.
(§2) Recombinant human embryonic kidney (HEK-293) derived cell lines stably transfected with hSERT or hNET, respectively, were grown in DMEM medium supplemented with 10% dialyzed FBS (for hSERT) or FBS (for hNET), 100 μg/ml penicillin, 100 μg/ml streptomycin, 2 mM L-glutamine and 250 μg/ml of the aminoglycoside antibiotic G418, in a 5% CO2 humidified incubator at 37° C. When cultures reached 80% confluence, the cells were washed thoroughly in PBS (without […] and Mg^2+) and lifted with 5 mM EDTA in PBS. Cells were pelleted by centrifugation, resuspended in lysis buffer (10 mM Tris-HCl, pH7.5 containing 1 mM EDTA), homogenized, pelleted by centrifugation, then resuspended in 50 mM Tris-HCl, pH 7.5 and 10% sucrose at 4° C. Protein concentration of the membrane suspension was determined using a Bio-Rad Bradford Protein Assay kit. Membranes were snap frozen and stored at −80° C. Chinese hamster ovary membranes expressing hDAT (CHO-DAT) were purchased from PerkinElmer and stored at −80° C.
(§3) Binding assays were performed in a 96-well assay plate in a total volume of 200 μl assay buffer (50 mM Tris-HCl, 120 mM NaCl, 5 mM KCl, pH 7.4) with 0.5, 1, and 3 μg membrane protein, for SERT, NET and DAT, respectively.
(§4) Stock solutions (10 mM in DMSO) of test compound were prepared and serial dilutions made using Dilution Buffer (50 mM Tris-HCl, 120 mM NaCl, 5 mM KCl, pH 7.4, 0.1% BSA, 400 μM ascorbic acid).
(§5) Following a 60 minute incubation at 22° C. (or a period sufficient to reach equilibrium), the membranes were harvested by rapid filtration over a 96-well UniFilter GF/B plate, pretreated with 0.3% polyethyleneimine, and washed 6 times with 300 μl wash buffer (50 mM Tris-HCl, 0.9% NaCl, pH 7.5 at 4° C.). Plates were dried overnight at room temperature, ˜45 μl of MicroScint™-20 (Perkin Elmer) added and bound radioactivity quantitated via liquid scintillation spectroscopy. Inhibition curves and saturation isotherms were analyzed using GraphPad Prism Software package (GraphPad Software, Inc., San Diego, Calif.). IC50 values were generated from concentration response curves using the Sigmoidal Dose Response (variable slope) algorithm in Prism GraphPad. Kd and Bmax values for the radioligand were generated from saturation isotherms using the Saturation Binding Global Fit algorithm in Prism GraphPad. pKi (negative decadic logarithm of Ki) values for test compounds were calculated from the best-fit IC50 values, and the Kd value of the radioligand, using the Cheng-Prusoff equation (Cheng & Prusoff (1973) Biochem. Pharmacol. 22(23):3099-3108): Ki=IC50/(1+[L]/Kd), where [L]=concentration radioligand.

For experiment [2], the target named is SERT (Homo sapiens, UniProt P31645). Nature of the experiment: hSERT radioligand binding assay (3H-citalopram). Also noted: expressed in transfected cells; host or cells: HEK-293. The note with it: hSERT membranes (HEK-293), 1.0 nM 3H-citalopram; for Ki: read-out: SERT pKi (converted). The protocol: as §1, §2, §3, §4, §5

Marks after values point to notes of the source that are not given here.

Sequence of NET (P23975 whole entry): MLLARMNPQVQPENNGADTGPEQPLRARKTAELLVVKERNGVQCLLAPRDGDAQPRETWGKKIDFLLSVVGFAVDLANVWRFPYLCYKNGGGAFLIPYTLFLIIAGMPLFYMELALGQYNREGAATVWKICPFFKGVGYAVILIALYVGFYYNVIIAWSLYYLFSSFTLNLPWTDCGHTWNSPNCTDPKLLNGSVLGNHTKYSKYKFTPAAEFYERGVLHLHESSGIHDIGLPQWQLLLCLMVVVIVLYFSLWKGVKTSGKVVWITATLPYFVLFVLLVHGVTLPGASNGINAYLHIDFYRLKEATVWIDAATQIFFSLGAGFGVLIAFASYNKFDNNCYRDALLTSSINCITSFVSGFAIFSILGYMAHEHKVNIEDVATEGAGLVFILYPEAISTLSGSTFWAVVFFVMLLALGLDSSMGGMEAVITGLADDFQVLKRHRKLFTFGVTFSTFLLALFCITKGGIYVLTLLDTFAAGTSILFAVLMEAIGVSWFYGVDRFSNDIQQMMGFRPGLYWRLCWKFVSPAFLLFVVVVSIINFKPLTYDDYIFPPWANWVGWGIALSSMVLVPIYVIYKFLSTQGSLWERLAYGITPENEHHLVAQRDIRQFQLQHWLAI
Sequence of SERT (P31645 whole entry): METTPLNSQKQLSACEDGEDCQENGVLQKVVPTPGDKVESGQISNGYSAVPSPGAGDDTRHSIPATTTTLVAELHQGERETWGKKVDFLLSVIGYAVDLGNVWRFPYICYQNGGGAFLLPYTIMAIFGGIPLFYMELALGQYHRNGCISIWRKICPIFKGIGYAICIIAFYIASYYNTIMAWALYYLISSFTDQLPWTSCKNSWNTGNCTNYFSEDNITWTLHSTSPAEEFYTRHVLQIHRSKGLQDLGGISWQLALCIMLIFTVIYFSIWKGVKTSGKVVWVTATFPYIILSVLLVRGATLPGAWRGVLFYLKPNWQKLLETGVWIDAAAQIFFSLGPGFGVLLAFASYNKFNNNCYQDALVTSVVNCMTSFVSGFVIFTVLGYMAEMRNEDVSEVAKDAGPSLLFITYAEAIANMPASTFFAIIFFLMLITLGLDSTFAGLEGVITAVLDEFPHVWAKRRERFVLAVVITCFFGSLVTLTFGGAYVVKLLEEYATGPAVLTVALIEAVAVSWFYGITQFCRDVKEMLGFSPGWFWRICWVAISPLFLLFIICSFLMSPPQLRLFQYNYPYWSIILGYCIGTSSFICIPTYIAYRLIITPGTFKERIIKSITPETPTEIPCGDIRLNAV

As for `Fc1cc(F)c(OC(c2nccs2)C2CCNC2)c(F)c1.O=C(O)C(F)(F)F` (mixture of isomers) [Example 5-5, 2-[((S)-Pyrrolidin-3-yl-(2,4,6-trifluorophenoxy)methyl]thiazole], the “NET pKi” value in experiment [1] was “≧7.0”. Further, in experiment [2], the “SERT pKi” value is listed as “≧7.0”.
Take `Cc1cc(Cl)c(OC(c2nccs2)C2CCNC2)c(Cl)c1.O=C(O)C(F)(F)F` (mixture of isomers) [Example 5-12, 2-[((S)-(2,6-Dichloro-4-methylphenoxy)-pyrrolidin-3-yl-methyl]thiazole]: the “NET pKi” value in experiment [1] is reported as “≧5.0”. Also, the “SERT pKi” value in experiment [2] was “≧7.0”.
For `Cc1cc(Cl)ccc1OC(c1nccs1)[C@H]1CCNC1` (single isomer, unassigned) [Example 4], the Ki in experiment [1] and in experiment [2] was at most 100 nM each time.
In the case of `Clc1cc(Cl)c(O[C@@H](c2ncco2)[C@H]2CCNC2)cc1Cl` [6-1], the Ki in experiment [1] and in experiment [2] was at most 100 nM each time.
Take `Fc1cc(F)c(O[C@@H](c2ncco2)[C@H]2CCNC2)c(F)c1` [6-2]: the Ki in experiment [1] and in experiment [2] was at most 10000 nM throughout.
Regarding `Fc1c(Cl)ccc(O[C@@H](c2ncco2)[C@H]2CCNC2)c1Cl.O=C(O)C(F)(F)F` [6-4], in experiment [1], the “NET pKi” value is recorded as “≧7.0”. In addition, the “SERT pKi” value in experiment [2] was “≧7.0”.
Regarding `Clc1cccc(Cl)c1O[C@@H](c1ncco1)[C@H]1CCNC1.O=C(O)C(F)(F)F` [6-8], the “NET pKi” value in experiment [1] was “≧7.0”. Besides, the “SERT pKi” value in experiment [2] was “≧7.0”.
With `Fc1cc(F)c(Cl)c(O[C@@H](c2ncco2)[C@H]2CCNC2)c1Cl.O=C(O)C(F)(F)F` [6-9], the “NET pKi” value in experiment [1] was “≧7.0”. For the same compound, the “SERT pKi” value in experiment [2] is given as “≧5.0”.
Take `Fc1cc(F)c(Cl)c(O[C@H](c2ncco2)[C@H]2CCNC2)c1Cl` [6-10]: the Ki in experiment [1] was at most 10000 nM; in experiment [2], at most 100 nM.
Take `Cc1cc(Cl)c(O[C@@H](c2ncco2)[C@H]2CCNC2)c(Cl)c1.O=C(O)C(F)(F)F` [6-12]: the “NET pKi” value in experiment [1] was “≧5.0”. Moreover, the “SERT pKi” value in experiment [2] is “≧7.0”.
On the same counts, the results for `Fc1cc(Cl)cc(F)c1OC(c1ncco1)C1CCNC1` (centres unmarked) [6-13] are “≧7.0” and “≧7.0”.
In the case of `Cc1cccc(C)c1O[C@@H](c1ncco1)[C@H]1CCNC1.O=C(O)C(F)(F)F` [6-14], the “NET pKi” value in experiment [1] is “≧7.0”. For the same compound, the “SERT pKi” value in experiment [2] is given as “≧7.0”.
As to `Cc1cc(Cl)cc(C)c1O[C@@H](c1ncco1)[C@H]1CCNC1.O=C(O)C(F)(F)F` [6-15], in experiment [1], the “NET pKi” value was “≧5.0”. The “SERT pKi” value in experiment [2] is reported as “≧7.0”.
For the compound `Clc1ccc(OC(c2ncco2)C2CCNC2)c(Cc2ccccc2)c1` (centres unmarked) [6-16], the “NET pKi” value in experiment [1] was “≧7.0”. Also, the “SERT pKi” value in experiment [2] was “≧7.0”.
For the compound `FC(F)(F)c1ccccc1O[C@@H](c1ncco1)[C@H]1CCNC1` [6-17], the Ki is at most 100 nM in experiment [1] and at most 10000 nM in experiment [2].
For the compound `FC(F)(F)c1cc(Cl)ccc1O[C@@H](c1ncco1)[C@H]1CCNC1.O=C(O)C(F)(F)F` [6-18], the “NET pKi” value in experiment [1] is “≧7.0”. Moreover, in experiment [2], the “SERT pKi” value is “≧7.0”.
As to `Clc1ccccc1O[C@@H](c1ncco1)[C@H]1CCNC1` [6-19], the “NET pKi” value in experiment [1] is “≧7.0”. In experiment [2], the “SERT pKi” value is “≧5.0”.
As for `Fc1ccc(F)c(O[C@H](c2ncco2)[C@H]2CCNC2)c1Cl` [6-21], the Ki in experiment [1] and in experiment [2] was at most 10000 nM in each case.
For `Fc1ccc(O[C@@H](c2ncco2)[C@H]2CCNC2)c(Cl)c1.O=C(O)C(F)(F)F` [6-22], the “NET pKi” value in experiment [1] is “≧7.0”. In experiment [2], the “SERT pKi” value was “≧5.0”.
On the same counts, the results for `Cc1cc(Cl)c(O[C@@H](c2ncco2)[C@H]2CCNC2)cc1F.O=C(O)C(F)(F)F` [6-24] are “≧7.0” and “≧7.0”.
Turning to `Clc1cc(-c2ccccc2)ccc1O[C@@H](c1ncco1)[C@H]1CCNC1.O=C(O)C(F)(F)F` [6-25], the “NET pKi” value in experiment [1] is “≧7.0”. Besides, the “SERT pKi” value in experiment [2] was “≧5.0”.
On the same counts, the results for `Cc1cccc(Cl)c1O[C@@H](c1ncco1)[C@H]1CCNC1` [6-26] are “≧7.0” and “≧7.0”.
`CC(=O)c1c(O[C@@H](c2ncco2)[C@H]2CCNC2)ccc(Cl)c1Cl.O=C(O)C(F)(F)F` [6-27]: the “NET pKi” value in experiment [1] was ~5.0*. Further, the “SERT pKi” value in experiment [2] was “≧7.0”.
On the same counts, the results for `CC(=O)c1cc(F)cc(F)c1O[C@@H](c1ncco1)[C@H]1CCNC1.O=C(O)C(F)(F)F` [6-28] are “≧7.0” and “≧5.0”.
For the compound `COC(=O)c1cc(Cl)ccc1O[C@@H](c1ncco1)[C@H]1CCNC1.O=C(O)C(F)(F)F` [6-29], in experiment [1], the “NET pKi” value is listed as “≧7.0”. For the same compound, in experiment [2], the “SERT pKi” value was “≧7.0”.
As to `CCc1cc(F)ccc1O[C@@H](c1ncco1)[C@H]1CCNC1.O=C(O)C(F)(F)F` [6-30], the “NET pKi” value in experiment [1] is recorded as “≧7.0”. Further, in experiment [2], the “SERT pKi” value is “≧7.0”.
As for `Fc1cc(Cl)ccc1O[C@@H](c1ncco1)[C@H]1CCNC1.O=C(O)C(F)(F)F` [6-31], the “NET pKi” value in experiment [1] was “≧7.0”. In experiment [2], the “SERT pKi” value is reported as “≧7.0”.
Take `CC(C)c1ccccc1O[C@@H](c1ncco1)[C@H]1CCNC1.O=C(O)C(F)(F)F` [6-32]: the “NET pKi” value in experiment [1] was “≧7.0”. In addition, the “SERT pKi” value in experiment [2] is on record as “≧5.0”.
As for `Cc1ccccc1O[C@@H](c1ncco1)[C@H]1CCNC1` [6-33], the Ki in experiment [1] is at most 100 nM; in experiment [2], at most 10000 nM.
Take `Cc1cc(Cl)ccc1O[C@@H](c1ncco1)[C@H]1CCNC1.O=C(O)C(F)(F)F` [6-34]: the “NET pKi” value in experiment [1] is reported as “≧7.0”. In addition, in experiment [2], the “SERT pKi” value is “≧7.0”.
Regarding `Cc1cc(Cl)ccc1O[C@H](c1ncco1)[C@H]1CCNC1` [6-35], the Ki was at most 10000 nM in experiment [1] and at most 100 nM in experiment [2].
Take `O=C(O)C(F)(F)F.c1ccc(COc2ccccc2O[C@@H](c2ncco2)[C@H]2CCNC2)cc1` [6-36]: the “NET pKi” value in experiment [1] is listed as “≧7.0”. Also, the “SERT pKi” value in experiment [2] was “≧5.0”.
Consider `FC(F)(F)Oc1ccccc1O[C@@H](c1ncco1)[C@H]1CCNC1` [6-37], for which the Ki in experiment [1] is at most 100 nM; in experiment [2] it was at most 10000 nM.
On to `CCOc1ccccc1O[C@@H](c1ncco1)[C@H]1CCNC1.O=C(O)C(F)(F)F` [6-38], for which the “NET pKi” value in experiment [1] was “≧7.0”. In addition, the “SERT pKi” value in experiment [2] is listed as “≧5.0”.
With `COc1cc(Cl)ccc1O[C@@H](c1ncco1)[C@H]1CCNC1` [6-39], the “NET pKi” value in experiment [1] is reported as “≧7.0”. In addition, the “SERT pKi” value in experiment [2] is on record as “≧7.0”.
Take `COc1cc(Cl)c(F)cc1O[C@@H](c1ncco1)[C@H]1CCNC1.O=C(O)C(F)(F)F` [6-40]: the “NET pKi” value in experiment [1] is listed as “≧7.0”. Further, in experiment [2], the “SERT pKi” value was “≧7.0”.
For `COc1cccc(F)c1O[C@@H](c1ncco1)[C@H]1CCNC1.O=C(O)C(F)(F)F` [6-41], in experiment [1], the “NET pKi” value was “≧7.0”. In experiment [2], the “SERT pKi” value is on record as “≧5.0”.
Consider `O=C(O)C(F)(F)F.c1ccc(-c2ccccc2O[C@@H](c2ncco2)[C@H]2CCNC2)cc1` [6-42], for which, in experiment [1], the “NET pKi” value is recorded as “≧7.0”. The “SERT pKi” value in experiment [2] is on record as “≧5.0”.
As to `Clc1cc(Cl)cc(O[C@H](c2ncco2)[C@H]2CCNC2)c1` [6-44], the Ki in experiment [1] and in experiment [2] was at most 100 nM throughout.
Take `Clc1cccc(O[C@@H](c2ncco2)[C@H]2CCNC2)c1.O=C(O)C(F)(F)F` [6-45]: the “NET pKi” value in experiment [1] is “≧7.0”. In addition, the “SERT pKi” value in experiment [2] is listed as “≧5.0”.
Consider `Cc1cccc(O[C@@H](c2ncco2)[C@H]2CCNC2)c1` [6-46], for which the Ki in experiment [1] and in experiment [2] was at most 10000 nM in each case.
With `Clc1ccc(O[C@@H](c2ncco2)[C@H]2CCNC2)cc1.O=C(O)C(F)(F)F` [6-47], the “NET pKi” value in experiment [1] is on record as “≧7.0”. For the same compound, the “SERT pKi” value in experiment [2] was “≧7.0”.
As for `Cc1ccc(O[C@@H](c2ncco2)[C@H]2CCNC2)cc1` [6-48], the Ki in experiment [1] and in experiment [2] was at most 100 nM each time.
